Where “and” joins values, the source holds several entries; their conditions need not be identical. Identical values can stand only once. Inconclusive results and toxic doses are left out. No stated cut-off is given here; in the data, active means T/C of 150% or more; inactive means T/C below 125%.
Test system: L1210 leukemia ip in BDF1 mice, survival T/C
Test: NCI In Vivo Anticancer Drug Screen. Data for tumor model L1210 Leukemia (intraperitoneal) in B6D2F1 (BDF1) mice
Conditions: endpoint: mean survival time, higher = longer survival
Outline: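 In this screen, tumor-bearing mice given compound are compared to those given vehicle, and their survival values are reported as a treated-to-control quotient.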

[1] = dose: 100.0 mg/kg/injection, schedule: Q04DX003 (ip), vehicle: Klucel (hydroxypropylcellulose) (HPC)
[2] = dose: 200.0 mg/kg/injection, schedule: Q04DX003 (ip), vehicle: Klucel (hydroxypropylcellulose) (HPC)
[3] = dose: 400.0 mg/kg/injection, schedule: Q04DX003 (ip), vehicle: Klucel (hydroxypropylcellulose) (HPC)
[4] = dose: 100.0 mg/kg/injection, schedule: Q01DX009 (ip), vehicle: Klucel (hydroxypropylcellulose) (HPC)
[5] = dose: 200.0 mg/kg/injection, schedule: Q01DX009 (ip), vehicle: Klucel (hydroxypropylcellulose) (HPC)
[6] = dose: 400.0 mg/kg/injection, schedule: Q01DX009 (ip), vehicle: Klucel (hydroxypropylcellulose) (HPC)
[7] = dose: 50.0 mg/kg/injection, schedule: Q04DX003 (ip), vehicle: Klucel (hydroxypropylcellulose) (HPC)
[8] = dose: 100.0 mg/kg/injection, schedule: Q04DX003 (ip), vehicle: saline with Tween-80
[9] = dose: 200.0 mg/kg/injection, schedule: Q04DX003 (ip), vehicle: saline with Tween-80
[10] = dose: 100.0 mg/kg/injection, schedule: Q04DX003 (ip), vehicle: saline
[11] = dose: 200.0 mg/kg/injection, schedule: Q04DX003 (ip), vehicle: saline
[12] = dose: 100.0 mg/kg/injection, schedule: Q01DX001 (ip), vehicle: Klucel (hydroxypropylcellulose) (HPC)
[13] = dose: 200.0 mg/kg/injection, schedule: Q01DX001 (ip), vehicle: Klucel (hydroxypropylcellulose) (HPC)
[14] = dose: 400.0 mg/kg/injection, schedule: Q01DX001 (ip), vehicle: Klucel (hydroxypropylcellulose) (HPC)
[15] = dose: 100.0 mg/kg/injection, schedule: Q04DX002 (ip), vehicle: saline
[16] = dose: 200.0 mg/kg/injection, schedule: Q04DX002 (ip), vehicle: saline
[17] = dose: 400.0 mg/kg/injection, schedule: Q04DX002 (ip), vehicle: saline
[18] = dose: 25.0 mg/kg/injection, schedule: Q01DX009 (ip), vehicle: saline with Tween-80
[19] = dose: 50.0 mg/kg/injection, schedule: Q01DX009 (ip), vehicle: saline with Tween-80

Measured: T/C

O=C(O)c1ccccc1Cl
inactive: [1] 103 % of control | [2] 108 % of control | [3] 102 % of control

CCOC(=O)c1ccc(NC(=O)SCCSC(=O)Nc2ccc(C(=O)OCC)cc2)cc1
inactive: [4] 90 % of control | [5] 91 % of control | [6] 91 % of control

COc1ccccc1OCCOCCNC1C(C)CCCC1(C)C (configuration not stated)
inactive: dose: 12.5 mg/kg/injection, schedule: Q04DX003 (ip), vehicle: Klucel (hydroxypropylcellulose) (HPC) 100 % of control | dose: 25.0 mg/kg/injection, schedule: Q04DX003 (ip), vehicle: Klucel (hydroxypropylcellulose) (HPC) 94 % of control | [7] 93 % of control | [1] 90 % of control

Cc1ccc(NC(=O)CS)cc1
inactive: [8] 100 % of control | [9] 93 % of control

COc1ccc(N2C(=O)CC(Sc3ccccc3N)C2=O)cc1 (configuration not stated)
inactive: dose: 100.0 mg/kg/injection, schedule: Q01DX009 (ip), vehicle: other 102 % of control | [10] 94 % of control | dose: 200.0 mg/kg/injection, schedule: Q01DX009 (ip), vehicle: other 91 % of control | [11] 90 % of control | dose: 400.0 mg/kg/injection, schedule: Q01DX009 (ip), vehicle: other 91 % of control | dose: 400.0 mg/kg/injection, schedule: Q04DX003 (ip), vehicle: saline 90 % of control

COC(=O)CN(c1c(C)cc(C)c(N)c1C)S(=O)(=O)c1ccccc1
inactive: [12] 95 % of control | [1] 96 % of control | [13] 103 % of control | [2] 100 % of control | [14] 97 % of control | [3] 107 % of control

CC(=O)[O][Hg][CH2]C1(C)COC(C)([CH2][Hg][O]C(C)=O)CO1 (configuration not stated)
inactive: dose: 10.0 mg/kg/injection, schedule: Q01DX001 (ip), vehicle: carboxymethylcellulose (CMC) 108 % of control | dose: 20.0 mg/kg/injection, schedule: Q01DX001 (ip), vehicle: carboxymethylcellulose (CMC) 97 % of control | dose: 80.0 mg/kg/injection, schedule: Q01DX001 (ip), vehicle: carboxymethylcellulose (CMC) 97 % of control

COC(=O)N/N=C/c1ccc(C)cc1
inactive: dose: 100.0 mg/kg/injection, schedule: Q04DX002 (ip), vehicle: Klucel (hydroxypropylcellulose) (HPC) 108 % of control | dose: 200.0 mg/kg/injection, schedule: Q04DX002 (ip), vehicle: Klucel (hydroxypropylcellulose) (HPC) 115 % of control | dose: 400.0 mg/kg/injection, schedule: Q04DX002 (ip), vehicle: Klucel (hydroxypropylcellulose) (HPC) 94 % of control

CC(=O)OCCn1c([N+](=O)[O-])cnc1/C=[N+](/[O-])CCOC(C)=O
inactive: [15] 103 % of control | [16] 92 % of control | [17] 100 % of control

CC(C)CCCCCCCCCCCCC(=O)NCC(=O)NC1C(O)C(O)C(Nc2ncnc3nc[nH]c23)OC1C(O)CO (configuration not stated)
inactive: dose: 0.3 mg/kg/injection, schedule: Q## X000 (ip), vehicle: carboxymethylcellulose (CMC) 100 % of control | dose: 0.4 mg/kg/injection, schedule: Q01DX Z (ip), vehicle: carboxymethylcellulose (CMC) 107 % of control | dose: 0.44 mg/kg/injection, schedule: Q## X000 (ip), vehicle: carboxymethylcellulose (CMC) 107 % of control | dose: 0.6 mg/kg/injection, schedule: Q01DX Z (ip), vehicle: carboxymethylcellulose (CMC) 104 % of control | dose: 0.66 mg/kg/injection, schedule: Q## X000 (ip), vehicle: carboxymethylcellulose (CMC) 98 % of control | dose: 0.9 mg/kg/injection, schedule: Q01DX Z (ip), vehicle: carboxymethylcellulose (CMC) 103 % of control | dose: 1.0 mg/kg/injection, schedule: Q01DX001 (ip), vehicle: saline 101 % of control | dose: 1.0 mg/kg/injection, schedule: Q## X000 (ip), vehicle: carboxymethylcellulose (CMC) 110 % of control | dose: 1.35 mg/kg/injection, schedule: Q01DX Z (ip), vehicle: carboxymethylcellulose (CMC) 107 % of control | dose: 2.0 mg/kg/injection, schedule: Q01DX001 (ip), vehicle: saline 98 % of control | dose: 4.0 mg/kg/injection, schedule: Q01DX001 (ip), vehicle: saline 98 % of control | dose: 8.0 mg/kg/injection, schedule: Q01DX001 (ip), vehicle: saline 101 % of control | dose: 12.0 mg/kg/injection, schedule: Q01DX001 (ip), vehicle: saline 105 % of control | dose: 18.0 mg/kg/injection, schedule: Q01DX001 (ip), vehicle: saline 112 % of control | dose: 27.0 mg/kg/injection, schedule: Q01DX001 (ip), vehicle: saline 96 % of control

C1CCCCCC(C2CCCCCCCCCCC2)CCCCC1
inactive: dose: 25.0 mg/kg/injection, schedule: Q01DX009 (ip), vehicle: acetone 94 % of control | dose: 25.0 mg/kg/injection, schedule: Q04DX003 (ip), vehicle: saline 94 % of control | dose: 50.0 mg/kg/injection, schedule: Q01DX009 (ip), vehicle: acetone 93 % of control | dose: 50.0 mg/kg/injection, schedule: Q04DX003 (ip), vehicle: saline 92 % of control | dose: 100.0 mg/kg/injection, schedule: Q01DX001 (ip), vehicle: saline 92 % of control | dose: 100.0 mg/kg/injection, schedule: Q01DX009 (ip), vehicle: acetone 98 % of control | [10] 92 % of control | dose: 150.0 mg/kg/injection, schedule: Q01DX009 (ip), vehicle: saline 90 % of control | dose: 225.0 mg/kg/injection, schedule: Q01DX009 (ip), vehicle: saline 88 % of control | dose: 335.0 mg/kg/injection, schedule: Q01DX009 (ip), vehicle: saline 93 % of control

COc1ccc(OC)c(NC(=O)N(CCC#N)C2CCCCC2)c1
inactive: [1] 91 % of control | [2] 91 % of control

C/C=C/CC1C(=O)N(c2ccccc2)N(c2ccccc2)C1=O
inactive: dose: 25.0 mg/kg/injection, schedule: Q01DX009 (ip), vehicle: Klucel (hydroxypropylcellulose) (HPC) 106 % of control | dose: 50.0 mg/kg/injection, schedule: Q01DX009 (ip), vehicle: Klucel (hydroxypropylcellulose) (HPC) 95 % of control | [4] 97 % of control

CC(=O)OCC(OC(C)=O)C(OC(C)=O)C(OC(C)=O)C(O)C#N (configuration not stated)
inactive: dose: 12.5 mg/kg/injection, schedule: Q01DX009 (ip), vehicle: saline with Tween-80 93 % of control | [18] 93 % of control | [19] 97 % of control and 100 % of control

O=C(O)c1ccc(Oc2nc3ccccc3s2)cc1
inactive: dose: 100.0 mg/kg/injection, schedule: Q01DX009 (ip), vehicle: saline with Tween-80 102 % of control | [8] 111 % of control | dose: 200.0 mg/kg/injection, schedule: Q01DX009 (ip), vehicle: saline with Tween-80 120 % of control | [9] 97 % of control | dose: 400.0 mg/kg/injection, schedule: Q04DX003 (ip), vehicle: saline with Tween-80 86 % of control

O=C(Nc1ccccc1)Nc1cccc([N+](=O)[O-])c1
inactive: [15] 100 % of control | [16] 92 % of control | [17] 103 % of control

CCCCN(CCC#N)C(N)=O
inactive: dose: 100.0 mg/kg/injection, schedule: Q01DX Z (ip), vehicle: methylcellulose (MC) 100 % of control

O=C(N1CCOCC1)C1(c2ccccc2)CCNCC1
inactive: [10] 98 % of control | [11] 93 % of control

CC(=O)Nc1ccc(N=Nc2ccccc2)cc1C
inactive: [7] 100 % of control | [1] 96 % of control | [2] 96 % of control

O=C(CCO)Nc1cccc(Cl)c1
inactive: [12] 98 % of control | [4] 93 % of control | [13] 101 % of control | [5] 88 % of control | [14] 91 % of control | [6] 92 % of control

COC(=O)C(O)(C#CC(C)C)c1ccccc1 (configuration not stated)
inactive: dose: 100.0 mg/kg/injection, schedule: Q01DX001 (ip), vehicle: other 107 % of control | dose: 200.0 mg/kg/injection, schedule: Q01DX001 (ip), vehicle: other 100 % of control | dose: 400.0 mg/kg/injection, schedule: Q01DX001 (ip), vehicle: other 94 % of control

OCC1CC(n2cnc3c(NO)ncnc32)C(O)C1O (configuration not stated)
inactive: [18] 103 % of control | [19] 92 % of control | dose: 75.0 mg/kg/injection, schedule: Q01DX009 (ip), vehicle: saline with Tween-80 86 % of control
